Source: patent US20120202794A1 (priority 2011, published 2012)

Legend:
HCV Replicon 1b = experiment: HCV inhibition assay, HCV replicon 1b (Clone A or ET-lunet cells; RT-PCR or luciferase reporter); type: cell-based; settings: Hepatitis C virus, 96 h, HCV replicon 1b; 4 days incubation; read-out: Replicon 1b potency EC90
In short: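 Clone A (1500/well) or ET-lunet (3000/well) replicon cells treated with serially diluted compounds (0.5% DMSO, no G418) for 4 days at 37 °C. HCV RNA measured by one-step RT-PCR normalized to rRNA (ΔΔCt) or by luciferase luminescence versus DMSO controls; EC50/EC90 by curve fitting.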

[1] = Cell cytotoxicity assay (MTS), CC90 as reported in Table 1, cell line not stated; type: cell-based; settings: human; MTS assay; 8 days incubation; cell line not given
In short: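 Compounds, serially diluted from 100 μM, were incubated 8 days at 37° C with Huh7, HepG2 or BxPC3 (2×10^3 cells/well) or CEM (5×10^3 cells/well). Viability was read by MTS, 2 h, absorbance 490 nm. CC90 (90% inhibition) was taken against untreated cells.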

SMILES | EC90 (HCV Replicon 1b) | CC90 at 8 days [1]
CC(C)C[C@H]1C(=O)N[C@@H](c2ccccc2)CN1C(=O)c1noc(-c2ccc(F)c(F)c2)c1F [Compound 390, (3S,6S)-4-(5-(3,4-difluorophenyl)-4-fluoroisoxazole-3-carbonyl)-3-isobutyl-6-phenylpiperazin-2-one] | 2.05 µM | > 10 µM
CC(C)C[C@H]1C(=O)N[C@@H](c2ccccc2F)CN1C(=O)c1noc(-c2ccc(F)c(F)c2)c1F [Compound 392, (3S,6S)-4-(5-(3,4-difluorophenyl)-4-fluoroisoxazole-3-carbonyl)-6-(2-fluorophenyl)-3-isobutylpiperazin-2-one] | 1.91 µM | > 10 µM
CCC[C@H]1CN(C(=O)c2noc(-c3ccc(F)c(F)c3)c2F)[C@@H](CC(C)C)C(=O)N1 [Compound 393, (3S,6S)-4-(5-(3,4-difluorophenyl)-4-fluoroisoxazole-3-carbonyl)-3-isobutyl-6-propylpiperazin-2-one] | 0.26 µM | > 10 µM
CC(C)C[C@H]1CN(C(=O)c2noc(-c3ccc(F)c(F)c3)c2F)[C@@H](CC(C)C)C(=O)N1 [Compound 394, (3S,6S)-4-(5-(3,4-difluorophenyl)-4-fluoroisoxazole-3-carbonyl)-3,6-diisobutyl-piperazin-2-one] | 0.66 µM | > 10 µM
CC(C)C[C@H]1C(=O)N[C@@H](C2CCCC2)CN1C(=O)c1noc(-c2ccc(F)c(F)c2)c1F [Compound 395, (3S,6S)-6-cyclopentyl-4-(5-(3,4-difluorophenyl)-4-fluoroisoxazole-3-carbonyl)-3-isobutylpiperazin-2-one] | 1.02 µM | > 10 µM
CC(C)C[C@H]1C(=O)N[C@@H](C2CCCCC2)CN1C(=O)c1noc(-c2ccc(F)c(F)c2)c1F [Compound 396, (3S,6S)-6-cyclohexyl-4-(5-(3,4-difluorophenyl)-4-fluoroisoxazole-3-carbonyl)-3-isobutylpiperazin-2-one] | 1.82 µM | > 10 µM
CCC[C@H]1C(=O)N[C@@H](c2ccccc2)CN1C(=O)c1cc(-c2ccc(F)cc2)on1 [Compound 397, (3S,6S)-4-(5-(4-fluorophenyl)isoxazole-3-carbonyl)-6-phenyl-3-propylpiperazin-2-one] | 0.89 µM | > 10 µM
CCC[C@H]1C(=O)N[C@@H](c2ccccc2)CN1C(=O)[C@@H]1C[C@H]1c1ccccc1 [Compound 399, (3S,6S)-6-phenyl-4-((1R,2R)-2-phenylcyclopropanecarbonyl)-3-propylpiperazin-2-one] | 2.07 µM | > 10 µM
CC(C)[C@H]1C(=O)N[C@@H](c2ccccc2)CN1C(=O)c1cc(-c2ccc(F)cc2)on1 [Compound 400, (3S,6S)-4-(5-(4-fluorophenyl)isoxazole-3-carbonyl)-3-isopropyl-6-phenylpiperazin-2-one] | 0.97 µM | > 10 µM
CC(C)[C@H]1C(=O)N[C@@H](c2ccccc2)CN1C(=O)[C@@H]1C[C@H]1c1ccccc1 [Compound 402, (3S,6S)-3-isopropyl-6-phenyl-4-((1R,2R)-2-phenylcyclopropanecarbonyl)piperazin-2-one] | 6.63 µM | > 10 µM
CC(C)[C@H]1C(=O)N[C@@H](c2ccccc2)CN1C(=O)c1noc(-c2ccc(F)cc2)n1 [Compound 403, (3S,6S)-4-(5-(4-fluorophenyl)-1,2,4-oxadiazole-3-carbonyl)-3-isopropyl-6-phenyl-piperazin-2-ono] | 0.27 µM | > 10 µM
CC(C)[C@H]1C(=O)N[C@@H](c2ccccc2)CN1C(=O)c1nc(-c2ccc(F)cc2)no1 [Compound 404, (3S,6S)-4-(3-(4-fluorophenyl)-1,2,4-oxadiazole-5-carbonyl)-3-isopropyl-6-phenyl-piperazin-2-one] | 1.58 µM | > 10 µM
CC(C)C[C@H]1CN(C(=O)c2noc(-c3ccc(Cl)cc3)n2)[C@@H](CC(C)C)C(=O)N1 [Compound 405, (3S,6S)-4-(5-(4-chlorophenyl)-1,2,4-oxadiazole-3-carbonyl)-3,6-diisobutylpiperazin-2-one] | 0.32 µM | > 10 µM
CC(C)C[C@H]1C(=O)N[C@@H](c2ccccc2)CN1C(=O)c1noc(-c2ccc(Cl)cc2)n1 [Compound 406, (3S,6S)-4-(5-(4-chlorophenyl)-1,2,4-oxadiazole-3-carbonyl)-3-isobutyl-6-phenyl-piperazin-2-one] | 0.23 µM | > 10 µM
C=CC[C@H]1C(=O)N[C@@H](c2ccccc2)CN1C(=O)c1cc(-c2ccc(F)cc2)on1 [Compound 407, (3S,6S)-3-allyl-4-(5-(4-fluorophenyl)isoxazole-3-carbonyl)-6-phenylpiperazin-2-one] | 0.74 µM | > 10 µM
C=CC[C@H]1C(=O)N[C@@H](CCC)CN1C(=O)c1cc(-c2ccc(F)cc2)on1 [Compound 409, (3S,6S)-3-allyl-4-(5-(4-fluorophenyl)isoxazole-3-carbonyl)-6-propylpiperazin-2-one] | 1.88 µM | > 10 µM
CC(C)C[C@H]1CCN(C(=O)c2cc(-c3ccc(F)cc3)on2)[C@@H](CC(C)C)C(=O)N1 [Compound 411, (3S,7S)-4-(5-(4-fluorophenyl)isoxazole-3-carbonyl)-3,7-diisobutyl-1,4-diazepan-2-one] | > 10 µM | > 10 µM
CC(C)CC1CNC(=O)[C@H](CC(C)C)N(C(=O)c2cc(-c3ccc(F)cc3)on2)C1 (stereo partly drawn) [Compound 413, (3S)-4-(5-(4-fluorophenyl)isoxazole-3-carbonyl)-3,6-diisobutyl-1,4-diazepan-2-one] | > 10 µM | > 10 µM
CC(C)C[C@H]1C(=O)N[C@H](c2ccccc2)CCN1C(=O)c1cc(-c2ccc(F)cc2)on1 [Compound 415, (3S,7S)-4-(5-(4-fluorophenyl)isoxazole-3-carbonyl)-3-isobutyl-7-phenyl-1,4-diazepan-2-one] | > 10 µM | > 10 µM
CC(C)C[C@H]1C(=O)N[C@H](c2ccccc2)CCN1C(=O)[C@@H]1C[C@H]1c1ccccc1 [Compound 417, (3S,75)-3-isobutyl-7-phenyl-4-((1R,2R)-2-phenylcyclopropanecarbonyl)-1,4-diazepan-2-one] | 7.77 µM | > 10 µM
CC(C)C[C@H]1C(=O)NC[C@H](c2ccccc2)CN1C(=O)[C@@H]1C[C@H]1c1ccccc1 [Compound 418, (3S,6S)-3-isobutyl-6-phenyl-4-((1R,2R)-2-phenylcyclopropanecarbonyl)-1,4-diazepan-2-one] | > 10 µM | > 10 µM
CC(C)C[C@H]1C(=O)NC[C@H](c2ccccc2)CN1C(=O)c1cc(-c2ccc(F)cc2)on1 [Compound 420, (3S,6S)-3-isobutyl-6-phenyl-4-(5-(4-fluorophenyl)isoxazole-3-carbonyl)-1,4-diazepan-2-one] | > 10 µM | > 10 µM
CC(C)C[C@H]1CN(C(=O)[C@H]2C[C@@H]2c2ccc(F)cc2F)[C@@H](CC(C)C)C(=O)N1 [Compound 421, (3S,6S)-4-[(1S,2S)-2-(2,4-Difluoro-phenyl)-cyclopropanecarbonyl]-3,6-diisobutyl-piperazin-2-one] | > 10 µM | > 10 µM
